Test results: patent US4272437A, “Antibacterial agents, and 4-thio azetidinone intermediates” (priority 1979, dated 1981)
Values after ≈ are worked out from the molar mass of the structure shown. Read-outs that look alike come from different tables or passages of the source.

Experiments:
Ser. marcescens A-20019 = assay: MIC, tube dilution, Serratia marcescens A20019; type: cell-based; conditions: overnight 37° C.; for MIC: Serratia marcescens, A20019, Serratia marcescens A20019, read-out: Minimum Inhibitory Concentration (M.I.C.)
From the text: (§1) Representative compounds of the present invention were subjected to in vitro antibiotic screening against a variety of microorganisms.

Staph. aureus A-9537 = assay: MIC, tube dilution, Staphylococcus aureus A9537; type: cell-based; conditions: overnight 37° C., Nutrient Broth; for MIC: Staphylococcus aureus, A9537, Staph. aureus A9537, read-out: Minimum Inhibitory Concentration (M.I.C.)
From the text: as §1

E. coli A-15119 = assay: MIC, tube dilution, Escherichia coli A15119; type: cell-based; conditions: overnight 37° C.; for MIC: Escherichia coli, A15119, E. coli A15119, read-out: Minimum Inhibitory Concentration (M.I.C.)
From the text: as §1

K. pneumoniae A-15130 = assay: MIC, tube dilution, Klebsiella pneumoniae A15130; type: cell-based; conditions: overnight 37° C.; for MIC: Klebsiella pneumoniae, A15130, K. pneumoniae A15130, read-out: Minimum Inhibitory Concentration (M.I.C.)
From the text: as §1

[1] = test system: Staph. aureus A-9537 and 50% serum; assay: MIC, tube dilution, Staph. aureus A9537 + 50% serum; type: cell-based, Staphylococcus aureus; conditions: overnight 37° C.; for MIC: Staphylococcus aureus, read-out: Minimum Inhibitory Concentration (M.I.C.)
From the text: as §1

Ps. aeruginosa A-9843A = assay: MIC, tube dilution, Pseudomonas aeruginosa A9843A; type: cell-based; conditions: overnight 37° C.; for MIC: Pseudomonas aeruginosa, A9843A, read-out: Minimum Inhibitory Concentration (M.I.C.), Pseudomonas aeruginosa A9843A
From the text: as §1

Ent. cloacae A-9659 = assay: MIC, tube dilution, Enterobacter cloacae A9659; type: cell-based; conditions: overnight 37° C.; for MIC: Enterobacter cloacae, A9659, Enterobacter cloacae A9659, read-out: Minimum Inhibitory Concentration (M.I.C.)
From the text: as §1

Ps. aeruginosa A-21213 = assay: MIC, tube dilution, Pseudomonas aeruginosa A21213; type: cell-based; conditions: Pseudomonas aeruginosa A21213, overnight 37° C.; for MIC: read-out: Minimum Inhibitory Concentration (M.I.C.)
From the text: as §1

[2] = test system: Staph. aureus (Meth-Res) A-15097; assay: MIC, tube dilution, Staphylococcus aureus A15097 (Meth-Res); type: cell-based; conditions: overnight 37° C.; for MIC: Staphylococcus aureus
From the text: as §1

Pr. morganii A-15153 = assay: MIC, tube dilution, Proteus morganii A15153; type: cell-based; conditions: overnight 37° C.; for MIC: Morganella morganii, A15153, Proteus morganii A15153, read-out: Minimum Inhibitory Concentration (M.I.C.)
From the text: as §1

E. coli A-20341-1 = assay: MIC, tube dilution, Escherichia coli A20341-1; type: cell-based; conditions: E. coli A20341-1, overnight 37° C.; for MIC: Escherichia coli, A203411, read-out: Minimum Inhibitory Concentration (M.I.C.)
From the text: as §1

Pr. mirabilis A-9900 = assay: MIC, tube dilution, Proteus mirabilis A9900; type: cell-based; conditions: overnight 37° C.; for MIC: Proteus mirabilis, A9900, Proteus mirabilis A9900, read-out: Minimum Inhibitory Concentration (M.I.C.)
From the text: as §1

Str. faecalis A-20688 = assay: MIC, tube dilution, Streptococcus faecalis A20688; type: cell-based; conditions: overnight 37° C.; for MIC: Enterococcus faecalis, A20688, Str. faecalis A20688, read-out: Minimum Inhibitory Concentration (M.I.C.)
From the text: as §1

[3] = test system: Staph. aureus (Pen-Res) A-9606; assay: MIC, tube dilution, Staphylococcus aureus A9606 (Pen-Res); type: cell-based; conditions: overnight 37° C.; for MIC: Staphylococcus aureus
From the text: as §1

[4] = test system: Providencia stuartii A21205; assay: MIC, tube dilution, Providencia stuartii (Pr. rettgeri) A21205; type: cell-based; conditions: for MIC: Providencia stuartii
From the text: as §1

Str. pyogenes A-9604 = assay: MIC, tube dilution, Streptococcus pyogenes A9604; type: cell-based; conditions: overnight 37° C., Nutrient Broth; for MIC: Streptococcus pyogenes, A9604, Str. pyogenes A9604, read-out: Minimum Inhibitory Concentration (M.I.C.)
From the text: as §1

Str. pneumoniae A-9585 = assay: MIC, tube dilution, Streptococcus pneumoniae A9585; type: cell-based; conditions: overnight 37° C., Nutrient Broth; for MIC: Streptococcus pneumoniae, A9585, Str. pneumoniae A9585, read-out: Minimum Inhibitory Concentration (M.I.C.)
From the text: as §1

Pr. vulgaris A-9716 = assay: MIC, tube dilution, Proteus vulgaris / Proteus mirabilis A9716; type: cell-based, Proteus vulgaris (name changed to Proteus mirabilis); conditions: overnight 37° C.; for MIC: Proteus vulgaris
From the text: as §1

Ent. cloacae A-9656 = assay: MIC, tube dilution, Enterobacter cloacae A9656; type: cell-based; conditions: overnight 37° C.; for MIC: read-out: Minimum Inhibitory Concentration (M.I.C.)
From the text: as §1

[5] = test system: Klebsiella species A20468; assay: MIC, tube dilution, Klebsiella species A20468; type: cell-based; conditions: Klebsiella species (K. pneumoniae) A20468, overnight 37° C.; for MIC: read-out: Minimum Inhibitory Concentration (M.I.C.)
From the text: as §1

[6] = read-out: Minimum Inhibitory Concentration (M.I.C.), Staph. aureus A15097 (Meth-Res)
[7] = read-out: Minimum Inhibitory Concentration (M.I.C.), Staph. aureus A9606 (Pen-Res)
[8] = A21205, read-out: Minimum Inhibitory Concentration (M.I.C.)
[9] = A9716, read-out: Minimum Inhibitory Concentration (M.I.C.), Proteus vulgaris / Proteus mirabilis A9716

Compound | MIC (Ser. marcescens A-20019) | MIC (Staph. aureus A-9537) | MIC (E. coli A-15119) | MIC (K. pneumoniae A-15130) | MIC [1] | MIC (Ps. aeruginosa A-9843A) | MIC (Ent. cloacae A-9659) | MIC (Ps. aeruginosa A-21213) | MIC [2, 6] | MIC (Pr. morganii A-15153) | MIC (E. coli A-20341-1) | MIC (Pr. mirabilis A-9900) | MIC (Str. faecalis A-20688) | MIC [3, 7] | MIC [4, 8] | MIC (Str. pyogenes A-9604) | MIC (Str. pneumoniae A-9585) | MIC (Pr. vulgaris A-9716; [9]) | MIC (Ent. cloacae A-9656; Enterobacter cloacae A9656) | MIC [5] | also measured
6-Acetoxymethyl-2-methylpenem-3-carboxylic Acid [Example 2] |  |  |  |  |  |  |  |  |  |  |  |  |  |  |  |  |  |  |  |  | Minimum Inhibitory Concentration (M.I.C.) (Ser. marcescens A-20019; Serratia marcescens A20019): 125 µg/mL; Minimum Inhibitory Concentration (M.I.C.) (Staph. aureus A-9537; Staph. aureus A9537): 8 µg/mL; Minimum Inhibitory Concentration (M.I.C.) (E. coli A-15119; E. coli A15119): 32 µg/mL; Minimum Inhibitory Concentration (M.I.C.) (K. pneumoniae A-15130; K. pneumoniae A15130): 63 µg/mL; Minimum Inhibitory Concentration (M.I.C.) [1]: > 63 µg/mL; Minimum Inhibitory Concentration (M.I.C.) (Ps. aeruginosa A-9843A; Pseudomonas aeruginosa A9843A): > 125 µg/mL; Minimum Inhibitory Concentration (M.I.C.) (Ent. cloacae A-9659; Enterobacter cloacae A9659): 125 µg/mL; Minimum Inhibitory Concentration (M.I.C.) (Ps. aeruginosa A-21213): > 125 µg/mL; Minimum Inhibitory Concentration (M.I.C.) ([2]; Staph. aureus A15097 (Meth-Res)): 8 µg/mL; Minimum Inhibitory Concentration (M.I.C.) (Pr. morganii A-15153; Proteus morganii A15153): 63 µg/mL; Minimum Inhibitory Concentration (M.I.C.) (E. coli A-20341-1): 32 µg/mL; Minimum Inhibitory Concentration (M.I.C.) (Pr. mirabilis A-9900; Proteus mirabilis A9900): 63 µg/mL; Minimum Inhibitory Concentration (M.I.C.) (Str. faecalis A-20688; Str. faecalis A20688): 63 µg/mL; Minimum Inhibitory Concentration (M.I.C.) ([3]; Staph. aureus A9606 (Pen-Res)): 4 µg/mL; Minimum Inhibitory Concentration (M.I.C.) ([4]; Providencia stuartii (Pr. rettgeri) A21205, overnight 37° C.): 32 µg/mL; Minimum Inhibitory Concentration (M.I.C.) (Str. pyogenes A-9604; Str. pyogenes A9604): 2 µg/mL; Minimum Inhibitory Concentration (M.I.C.) (Str. pneumoniae A-9585; Str. pneumoniae A9585): 1 µg/mL; Minimum Inhibitory Concentration (M.I.C.) (Pr. vulgaris A-9716; Proteus vulgaris / Proteus mirabilis A9716): 63 µg/mL; Minimum Inhibitory Concentration (M.I.C.) (Ent. cloacae A-9656; Enterobacter cloacae A9656): > 125 µg/mL; Minimum Inhibitory Concentration (M.I.C.) [5]: > 125 µg/mL
COCC1=C(C(=O)[O-])N2C(=O)C[C@H]2S1.[Na+] [Preparation 6, Sodium 2-Methoxymethylpenem-3-carboxylate] | 4 µg/mL | 0.5 µg/mL | 2 µg/mL | 8 µg/mL | 32 µg/mL | > 125 µg/mL | 4 µg/mL | > 125 µg/mL | > 125 µg/mL | 4 µg/mL | 125 µg/mL | 2 µg/mL | 32 µg/mL | 2 µg/mL | 2 µg/mL | 0.25 µg/mL | 0.06 µg/mL | 2 µg/mL | 8 µg/mL | > 125 µg/mL | 
CCC1=C(C(=O)O)N2C(=O)C[C@H]2S1 [Preparation 10, 2-Ethylpenem-3-carboxylic Acid] | 4 µg/mL (≈ 20.1 µM) | 0.13 µg/mL (≈ 0.653 µM) | 4 µg/mL (≈ 20.1 µM) | 8 µg/mL (≈ 40.2 µM) | 16 µg/mL | > 125 µg/mL | 16 µg/mL (≈ 80.3 µM) | 125 µg/mL (≈ 627 µM) |  | 8 µg/mL (≈ 40.2 µM) | 125 µg/mL (≈ 627 µM) | 4 µg/mL (≈ 20.1 µM) | 32 µg/mL (≈ 161 µM) |  |  | 0.5 µg/mL (≈ 2.51 µM) | 0.03 µg/mL (≈ 0.151 µM) |  |  | > 125 µg/mL | MIC ([2]; Staph. aureus A15097 (Meth-Res), read-out: Minimum Inhibitory Concentration (M.I.C.)): 0.5 µg/mL (≈ 2.51 µM); MIC ([3]; Staph. aureus A9606 (Pen-Res), read-out: Minimum Inhibitory Concentration (M.I.C.)): 0.5 µg/mL (≈ 2.51 µM); MIC ([4]; A21205, Providencia stuartii (Pr. rettgeri) A21205, overnight 37° C., read-out: Minimum Inhibitory Concentration (M.I.C.)): 4 µg/mL (≈ 20.1 µM); MIC (Pr. vulgaris A-9716; A9716, Proteus vulgaris / Proteus mirabilis A9716, read-out: Minimum Inhibitory Concentration (M.I.C.)): 4 µg/mL (≈ 20.1 µM); MIC (Ent. cloacae A-9656; Enterobacter cloacae, A9656, Enterobacter cloacae A9656): 16 µg/mL (≈ 80.3 µM)
COC1=C(C(=O)[O-])N2C(=O)C[C@H]2S1.[Na+] [Preparation 17, Sodium 2-Methoxypenem-3-carboxylate] | > 63 µg/mL | > 2 µg/mL | > 63 µg/mL | > 63 µg/mL | > 32 µg/mL | > 63 µg/mL | > 63 µg/mL | > 63 µg/mL | > 63 µg/mL | > 63 µg/mL | > 63 µg/mL | > 63 µg/mL | > 63 µg/mL | > 63 µg/mL | > 63 µg/mL | > 2 µg/mL | > 2 µg/mL | > 63 µg/mL | > 63 µg/mL | > 63 µg/mL | 
